Measured values from patent US7998948B2, “Pharmaceutical composition for treating esophageal cancer” (Eisai R&D Management Co., Ltd., priority 2007, dated 2011).

Experiments:
Format in all cases: cell-based
[1] = tested on: OE19 human esophageal cancer cells; test: Inhibitory action against proliferation of human esophageal cancer cells (OE19); details: OE19, 72 h, 0E19 cells, RPMI1640 with 10% FBS, 3 days incubation, Cell Counting Kit-8, read-out: concentration of the test substance required to inhibit 50% of cell proliferation (IC50), 0E19
Experimental: (§1) Human esophageal cancer cells (OE19, OE21 and OE33) were purchased from Dainippon Sumitomo Pharma Co., Ltd. OE19, OE21 or was suspended in RPMI1640 medium (purchased from Sigma) containing 10% FBS. The cell suspension (2×10^4 cells/ml) was dispensed into a 96-well plate (purchased from FALCON; product No. 353075) by 0.1 ml/well, and incubated at 37° C. in a 5% CO2 incubator overnight. After the incubation, 0.1 ml of the test substance diluted with RPMI1640 medium containing 10% FBS was added to each well, which was further incubated for 3 days in the 5% CO2 incubator (37° C.). After the incubation, 10 μl of Cell Counting Kit-8 (purchased from DOJINDO Laboratories) was added to each well, which were incubated for about 2 hours in the 5% CO2 incubator (37° C.). After the incubation, the absorbance of the each well was measured using a plate reader MTP-500 (Corona Electric Co., Ltd) with a measurement wavelength of 450 nm and a control wavelength of 660 nm. A ratio of absorbance (%) of each well with the test substance against the wells without the test substance was determined, and based on this ratio, the concentration of the test substance required to inhibit 50% of cell proliferation (IC50; μM) was determined and the results are shown in Table 1.

[2] = tested on: OE21 human esophageal cancer cells; test: Inhibitory action against proliferation of human esophageal cancer cells (OE21); details: OE21, 72 h, 0E21 cells, RPMI1640 with 10% FBS, 3 days incubation, Cell Counting Kit-8, read-out: concentration of the test substance required to inhibit 50% of cell proliferation (IC50), 0E21
Experimental: as §1

[3] = tested on: OE33 human esophageal cancer cells; test: Inhibitory action against proliferation of human esophageal cancer cells (OE33); details: OE33, 72 h, 0E33 cells, RPMI1640 with 10% FBS, 3 days incubation, Cell Counting Kit-8, read-out: concentration of the test substance required to inhibit 50% of cell proliferation (IC50), 0E33
Experimental: as §1

Row | Compound | IC50 [1] [nM] | IC50 [2] [nM] | IC50 [3] [nM]
1 | O=C(Nc1cc(Oc2cc(F)c(NC(=O)C3(C(=O)Nc4ccc(F)cc4)CC3)cc2F)ccn1)N1CC(CO)C1 [N-(2,5-Difluoro-4-{[2-({[3-(hydroxymethyl)azetidin-1-yl]carbonyl}amino)pyridin-4-yl]oxy}phenyl)-N′-(4-fluorophenyl)cyclopropane-1,1-dicarboxamide] | 3200 | 7400 | 250
2 | CN1CCN(C2CCN(C(=O)Nc3cc(Oc4cc(F)c(NC(=O)C5(C(=O)Nc6ccc(F)cc6)CC5)cc4F)ccn3)CC2)CC1 [N-(2,5-Difluoro-4-{[2-({[4-(4-methylpiperazin-1-yl)piperidin-1-yl]carbonyl}amino)pyridin-4-yl]oxy}phenyl)-N′-(4-fluorophenyl)cyclopropane-1,1-dicarboxamide] | 3500 | 3000 | 670
3 | CN1CCC(N(C)C(=O)Nc2cc(Oc3cc(F)c(NC(=O)C4(C(=O)Nc5ccc(F)cc5)CC4)cc3F)ccn2)CC1 [N-(2,5-Difluoro-4-{[2-({[methyl(1-methylpiperidin-4-yl)amino]carbonyl}amino)pyridin-4-yl]oxy}phenyl)-N′-(4-fluorophenyl)cyclopropane-1,1-dicarboxamide] | 2300 | 1700 | 140
4 | CN1CCN(C2CCN(C(=O)Nc3cc(Oc4ccc(NC(=O)C5(C(=O)Nc6ccc(F)cc6)CC5)c(F)c4)ccn3)CC2)CC1 [N-(2-Fluoro-4-{[2-({[4-(4-methylpiperazin-1-yl)piperidin-1-yl]carbonyl}amino)pyridin-4-yl]oxy}phenyl)-N′-(4-fluorophenyl)cyclopropane-1,1-dicarboxamide] | 3600 | 5500 | 1600
5 | O=C(Nc1cc(Oc2ccc(NC(=O)C3(C(=O)Nc4ccc(F)cc4)CC3)c(F)c2)ccn1)N1CCC1 [N-[4-({2-[(Azetidin-1-ylcarbonyl)amino]pyridin-4-yl}oxy)-2-fluorophenyl]-N′-(4-fluorophenyl)cyclopropane-1,1-dicarboxamide] | 4200 | > 10000 | 180
6 | O=C(Nc1cc(Oc2cc(F)c(NC(=O)C3(C(=O)Nc4ccc(F)cc4)CC3)cc2F)ccn1)N1CC(O)C1 [N-{2,5-Difluoro-4-[(2-{[(3-hydroxyazetidin-1-yl)carbonyl]amino}pyridin-4-yl)oxy]phenyl}-N′-(4-fluorophenyl)cyclopropane-1,1-dicarboxamide] | 5200 | 6400 | 240
